In US10173999B2, “Cyclic amine derivative and pharmaceutical use thereof” (Toray Industries, Inc., priority 2015, dated 2019):

Columns and labels:
[1] = Pharmacokinetics (PK) test in cynomolgus monkeys; format: in vivo, cynomolgus monkey
Method: Cynomolgus monkeys (4 to 6 years old, male) were raised under the conditions of voluntary intake of solid food (Oriental Yeast Co., Ltd) and tap water and fasted from the evening of the day before initiation of administration and subjected to an experiment. Note that blood was sampled at 4 hours after administration (on and after 16:00), and thereafter feeding was restarted.
Dosing solution for intravenous administration was injected through the saphenous vein by use of a syringe needle (attached to a syringe barrel). The oral administration into the stomach was compulsively carried out by inserting a catheter into the nasal cavity.
The blood sampled was centrifuged at 4° C. and 1800×g for 15 minutes to obtain the plasma. The plasma thus obtained was stored at about −80° C. until use in preparation of analysis samples. The plasma obtained from a cynomolgus monkey to which a test compound was administrated, is referred to as a plasma sample; whereas the plasma obtained from a cynomolgus monkey to which a test compound was not administered, is referred to as the blank plasma.
(§1) The resulting solution was vortexed and cooled at 4° C. for 10 minutes. A sample for a calibration curve was prepared by adding a standard solution for a calibration curve to the blank plasma and subjecting the resulting mixture to the same treatment. After cooling, each of the samples was spun at 4° C. and 2000 rpm for 10 minutes by a centrifuge (Hitachi Koki Co., Ltd.). The resulting supernatant was used as a sample for LC/MS/MS analysis.
as §1, with “diluted 10 fold with 70 vol % acetonitrile containing 0.1 vol % formic acid and subjected” for “used”, “analysis. The LC/MS/MS analysis conditions were as follows:” for “analysis.”
The test-compound concentrations in the plasma at each sampling time point in the case of intravenous administration or oral administration were calculated and PK analysis was carried out for individual monkeys. PK parameters were calculated by using WinNonlin (Pharsight), in accordance with an analysis independent of a model (intravenous administration: Bolus IV Administration, oral administration: Extravascular Administration; Weight=1/y in both administrations). Furthermore, bioavailability (BA) was calculated based on the following Expression (3) by dividing AUC0-∞iv (time 0 to ∞) at the time of the intravenous administration and AUC0-∞po (time 0 to ∞) at the time of the oral administration by respective dose values to obtained as normalized values. Bioavailability (BA)=(AUC0-∞,po/dose)/(AUC0-∞,iv/dose) (3)

Cr1: CD (SD) rats = assay: Evaluation of safety in rat, two-week oral administration test; format: in vivo; conditions: oral
Method: As a test compound, the compound of Example 11 or Comparative Example 2 was used. The compound of Example 11 or Comparative Example 2 was administered orally to Cr1: CD (SD) rats (7 weeks old, female and male; from Charles River Laboratories, Inc.), for 2 weeks. Clinical observation, body weight measurement, food intake measurement, ophthalmologic examination (the compound of Example 11, alone), hematological examination, blood chemistry examination, urinalysis, bone marrow examination, pathological anatomical examination, organ weight measurement, histopathological examination and immunotoxicity test were carried out. In addition, toxicokinetics (TK) measurement was carried out on Day 1 and Day 14 after administration. It was confirmed that each test compound was exposed. The administration dose of a test compound was specified as 0, 250, 500, 1000 mg/kg/day and administration volume was specified as 10 mL/kg. As an administration solvent, phosphate-buffered saline was used for the compound of Example 11 and distilled water was used for the compound of Comparative Example 2.

CN(C)C1CCN(C(=O)C[C@H](O)c2nccn2C)CC1 [Example 11, (S)-1-(4-(dimethylamino)piperidin-1-yl)-3-hydroxy-3-(1-methyl-1H-imidazol-2-yl)propan-1-one]
mean plasma concentration after administration compared with Comparative Example 2 ([1]; cynomolgus monkeys, intravenous and oral 1 mg/kg, all time points): higher
bioavailability ([1]; male, plasma, cynomolgus monkey, 1 mg/kg oral vs 1 mg/kg intravenous, read-out: BA (bioavailability)): 52.6%
clearance ([1]; male, plasma, cynomolgus monkey, intravenous administration 1 mg/kg, single, read-out: CLtot (total body clearance) (converted)): 3.25 mL/min/kg
AUC(0-inf) ([1]; male, plasma, cynomolgus monkey, oral administration 1 mg/kg, single): 2730 ng·h/mL
Cmax ([1]; male, plasma, cynomolgus monkey, oral administration 1 mg/kg, single, read-out: Cmax (maximum plasma concentration)): 279 ng/mL
half-life ([1]; male, plasma, cynomolgus monkey, oral administration 1 mg/kg, single, read-out: t1/2 (elimination half-life in the plasma) (converted)): 7.55 h
no observed adverse effect level (Cr1: CD (SD) rats; 2 weeks): ≥ 1000 mg/kg/day
findings in examination items (Cr1: CD (SD) rats; up to 1000 mg/kg/day for 2 weeks): abnormality was not observed
